Laboratory results as given in patent publication US5491146A, “Hydroxylated erythro-hydroxynonyladenines and related analogs” (Cypros Pharmaceutical Corporation, priority 1994, dated 1996).
Read-outs that look alike come from different tables or passages of the source.

Key:
[1] = tested on: intact hearts from male Sprague-Dawley rats; experiment: Langendorf isolated perfused heart, simulated ischemia 20 minutes then reoxygenation; parameters: species or system rat; conditions: for % fibr.: isolated rat hearts, 10 min drug treatment, 20 min ischemia; for # fibrillating: number of hearts fibrillating out of Total #
Excerpt: The tests carried out by Dr. Rodgers used a widely-used protocol known as a "Langendorf" preparation, which involves removing intact hearts from sacrificed lab animals (male Sprague-Dawley rats were used), and perfusing the hearts with liquids containing controlled quantities (or deficits) of oxygen and glucose for fixed periods of time. […] The left atrium is filled at 15 cm H2 O pressure, and the left ventricle ejects into a buffer-filled column against a pressure which equates to 72 mm Hg, except during ischemic periods. The perfusate was Krebs-Henseleit buffer with HCO3 (25 mM), Ca^++ (2.2 mM), and glucose (10 mM). […] Pefusate and ambient temperatures were held at 37° C. and the hearts were allowed to beat spontaneously.
Following stabilization and treatment, the hearts were subjected to simulated ischemia for 20 minutes; no oxygen was added to the perfusate during this period. When the ischemic period ended, oxygen was again added to the perfusion buffer, and the following parameters were measured over a period of 10 minutes:
LVPP--left ventricular pulse pressures (time-dependent pressures, calculated as peak pressure minus diastolic pressure, in mm Hg, millimeters of mercury column)
LVEDP--left ventricular end diastolic pressure (i.e, time-dependent pressures as the ventricle relaxed during diastolic filling, in mm Hg)
CFR--coronary flow rate (mL/min)
HR--spontaneous heartbeat rate (beats/min)
ECG--electrocardiogram (surface potential, in mV)

[2] = target: adenosine deaminase (ADA); conditions: read-out: Ki value (ADA); background statement; cited from earlier work
[3] = mammalian bloodstream; cited from earlier work
[4] = target: T1, calf intestinal ADA (Type III, Sigma Chemical Company) (Bos taurus, UniProt P56658); experiment: Testing for ADA inhibition, direct spectrophotometric assay at 265 nm; assay type: biochemical; conditions: for Ki: calf intestinal ADA, 30° C.; for inhibition of ADA activity (in words): tested as in Example 2
T1 construct: purchased Sigma Chemical Company Type III; host or cells: calf intestine
T1 sequence (P56658 1-363): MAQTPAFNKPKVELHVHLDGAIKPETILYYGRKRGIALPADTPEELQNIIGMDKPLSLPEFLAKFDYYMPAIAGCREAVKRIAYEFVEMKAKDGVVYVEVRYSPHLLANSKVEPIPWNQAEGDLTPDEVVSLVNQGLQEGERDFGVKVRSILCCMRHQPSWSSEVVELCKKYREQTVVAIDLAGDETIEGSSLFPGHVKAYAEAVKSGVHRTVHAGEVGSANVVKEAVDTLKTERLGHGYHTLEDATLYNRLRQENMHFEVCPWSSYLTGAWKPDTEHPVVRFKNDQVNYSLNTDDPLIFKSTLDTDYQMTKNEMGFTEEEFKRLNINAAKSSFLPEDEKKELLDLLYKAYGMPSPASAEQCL
Protocol: Compounds [10] (the 9-hydroxy analog), [23] (the 8-hydroxy analog), and [14] (the 8,9-dihydroxy analog) were tested for ADA inhibition activity, using calf intestinal ADA (Type III, Sigma Chemical Company) measured at 30° C. by direct spectrophotometric assays at 265 nm, as described in Harriman et al 1992.
Several of the analogs described in Example 3 were tested for inhibition of the adenosine deaminase (ADA) enzyme, using the procedures described in Example 2.

[5] = animals; cited from earlier work
[6] = isolated rat hearts after ischemia
[7] = read-out: Ki value (ADA inhibition)
[8] = read-out: Ki values (ADA inhibition)

| Ki [4, 7] [nM] | Ki [4, 8] [nM] | inhibition of ADA activity (in words) [4] | SMILES | % fibr. [1] [%] | # fibrillating [1] | further results |
| --- | --- | --- | --- | --- | --- | --- |
|  |  |  | CCCCCC[C@H]([C@H](C)O)n1cnc2c(N)ncnc21 (relative stereo) [EHNA, erythro-hydroxynonyladenine] | 14 | 1 | LVPP (left ventricular pulse pressure) after ischemia [1, 6]: moderate increase; coronary flow rate after ischemia [1, 6]: moderate increase; incidence of fibrillation (in words) [1, 6]: reduced the incidence of fibrillation; Ki [2]: ~4 nM; metabolism and clearance from bloodstream [3]: metabolized and cleared from the mammalian bloodstream fairly rapidly |
| 6 | 6 | effective inhibitor of ADA activity | C[C@H](O)[C@@H](CCCCC(O)CO)n1cnc2c(N)ncnc21 (single isomer, unassigned) [Compound 14] |  |  |  |
| 11 | 11 | shown to inhibit ADA activity | CC(O)CCCC[C@H]([C@H](C)O)n1cnc2c(N)ncnc21 (single isomer, unassigned) [Compound 23] |  |  |  |
| 3.4 | 3.4 | effective inhibitor of ADA activity | C[C@H](O)[C@@H](CCCCCCO)n1cnc2c(N)ncnc21 [Compound 10] | 11 | 1 | LVPP (left ventricular pulse pressure) after ischemia [1, 6]: moderate increase; coronary flow rate after ischemia [1, 6]: moderate increase; incidence of fibrillation (in words) [1, 6]: reduced the incidence of fibrillation; LVEDP (left ventricular end diastolic pressure), protection against muscle stiffening ([1]; isolated rat hearts after ischemia, compared with EHNA): significantly higher level of protection against muscle stiffening than unmodified EHNA |
|  |  | potency in the desired range | C[C@H](O)[C@@H](CCCCCCOC(=O)c1ccccc1)n1cnc2c(N)ncnc21 [Compound 25, 9-[9-Benzoyloxy-2(S)-hydroxy-3(R)-nonyl]adenine] |  |  |  |
|  | 3.7 | potency in the desired range | C[C@H](O)[C@@H](CCCCCCCl)n1cnc2c(N)ncnc21 [Compound 29, 9-[9-chloro-2(S)-hydroxy-3(R)-nonyl]adenine] |  |  |  |
|  | 5 | potency in the desired range | COC(=O)CCCCC[C@H]([C@H](C)O)n1cnc2c(N)ncnc21 [Compound 31] |  |  |  |
|  |  |  | CCN(CC)C(=S)SSC(=S)N(CC)CC [Disulfiram, disulfiram] | 40 | 2 |  |
|  |  |  | OC[C@H]1O[C@@H](n2cnc3c2NC=NC[C@H]3O)C[C@@H]1O [dCF, deoxycoformycin] |  |  | toxic side effects [5]: serious and unpredictable toxic side effects in some animals |

| SMILES | Ki [4, 7] [nM] | Ki [4, 8] [nM] | inhibition of ADA activity (in words) [4] | % fibr. [1] [%] | # fibrillating [1] | further results |
| --- | --- | --- | --- | --- | --- | --- |
| C=CCCCC[C@H]([C@H](C)O)n1cnc2c(N)ncnc21 [Compound 32, 9-[2(S)-hydroxy-3(R)-non-8-enyl]adenine] |  |  | potency in the desired range |  |  | Ki ([4]; Ki values (ADA inhibition)): 2.5 nM |
